Where no end group is shown, it is not given here.

The assay concerns rabbit esophageal circular smooth muscle tissue constructs. As to the kind of experiment: Real time isometric force generation of bioengineered esophageal smooth muscle constructs. Format: cell-based. As to conditions: isometric force transducer, tissue bath 37° C., constructs taken off chitosan scaffold, stretch baseline set to zero. The text has this: Tubular esophageal tissue was tissue-engineered to mimic the mechanical and physiological function of a native esophagus. Several concentrically aligned esophageal circular smooth muscle tissue constructs were bioengineered using collagen hydrogel. Three-dimensional smooth muscle tissue constructs were bioengineered. Rabbit esophageal constructs were bioengineered by laying down 5×10^5 rabbit esophageal circular smooth muscle cells in collagen gel on a Sylgard-coated plate with a central post. The smooth muscle constructs were placed around a 2.5 cm long hollow chitosan tube and biodegradable surgical glue was applied between the smooth muscle constructs and along their circumference. The constructs were maintained around the scaffold in culture for 5 days. The constructs were taken off the scaffold and tested to determine cholinergic contraction in response to Acetylcholine (Ach) and relaxation in response to vasoactive intestinal peptide (VIP). An isometric force transducer (Harvard Apparatus, Holliston, Mass.) was used to record real time force generated by the constructs. The constructs were kept incubated in a warm tissue bath keeping the tissue samples at conditions of 37° C.±1° C. The bioengineered tissue constructs were taken off the scaffold at day 15 for force generation measurement. […]

On to `CC(=O)OCC[N+](C)(C)C` [Ach, Acetylcholine], for which the “contraction (change in force generation)” value (FIG. 1) was 45 μN.

Consider “vasoactive intestinal peptide (HSDAVFTDNYTRLRKQMAVKKYLNSILN; ends and bridges not checked; UniProt P01282 125-152, looked up) [VIP, relaxant peptide used to test construct relaxation]”, for which the “relaxation (change in force generation)” value (FIG. 2) is −35 μN.

The values above are taken from patent publication US9675646B2, “Tubular bioengineered smooth muscle structures” (WAKE FOREST UNIVERSITY HEALTH SCIENCES, priority 2012, dated 2017).
